Source: patent publication US5252482A, “Precursor of a C-terminal amidated calcitonin” (Suntory Limited, priority 1982, dated 1993)
Bridge positions count the residues as written; N and C are the ends. Peptide text beside a SMILES is read from it.

System: Male Wistar strain rats
Assay: serum calcium lowering effect in rats
Assay type: in vivo, rat
Conditions: for Change in serum Ca level: 4.5 μg/rat subcutaneously, mean of 4 rats
Protocol: The biological activities of HPCT and HPCT Cp(1-3S purified by the above-mentioned procedure were assayed using the serum calcium lowering effect in rats as an indicator.
Male Wistar strain rats weighing 300 to 350 grams were fasted overnight and used. Each animal was secured in supine position and under ether anesthesia, a polyethylene tube (Intramedic® PE-50, Clay Adams) filled with heparin sodium injection J. P. (Japan-Upjohn) was inserted into the femoral artery of the right hind leg. The rat was fixed in a Boleman cage, and 30 minutes after awakening of the animal, 0.5 ml of the blood was withdrawn through the above polyethylene tube inserted into the femoral artery into a polyethylene centrifugal tube containing 50 units of heparin sodium. Immediately thereafter 0.2 ml of the under-mentioned physiological saline, HPCT. HPCT.Cp(1-33) or swine calcitonin solution was administered subcutaneously at the back of the animal. Then, 1, 2, 4 and 6 hours after the administration, 0.5 ml each of the blood was taken through the above-mentioned polyethylene tube. The blood thus taken was promptly centrifuged on an Eppendorf microcentrifuge (Eppendorf 5414) at 13,000 r.p.m. for 1 minute and the supernatant was used as serum fraction.
The blood calcium level was measured by the o-cresolphthalein complexon method using a commercial calcium assay kit RM117-K (Ca SET) (Yatron). Fifty μl of the serum was taken in a test tube and stirred with 0.5 ml of the color reagent containing o-cresolphthalein complexon and 8-hydroxyquinoline (RM117-2). Then, 5.0 ml of monoethanolamine borate buffer (RM117-1) was added and stirred. Within 90 minutes thereafter, the absorbance was measured with a self-recording spectrophotometer (Hitachi 320) at the wavelength of 575 mu. The concentration of calcium was calculated from this absorbance value.
The methods used in the preparation of the physiological saline solution, HPCT solution, HPCT. Cp(1-3S) solution and swine calcitonin solution employed are as follows.
a) Physiological saline solution: Bovine serum albumin (Sigma®) was dissolved in physiological saline J. P. (Ohtsuka Pharmaceutical Co.) at room temperature to the albumin concentration of 0.1%.
b) HPCT solution: HPCT was diluted with the above-mentioned physiological saline solution containing 0.1% of albumin to the HPCT concentration of 4.5 μg/0.2 ml.
c) HPCT Cp(1-33) solution: HPCT Cp(1-33) was diluted with the above-mentioned physiological saline solution containing 0.1% of albumine to the HPCT Cp(1-33) concentration of 20 μg/0.2 ml.
d) Swine calcitonin solution: Calcital® for Injection (Yamanouchi Pharmaceutical Co.) containing 160 I.U. of calcitonin per vial was dissolved in 40 ml of a vehicle containing 16% of purified gelatin and 0.5% phenol J. P. and the solution was diluted with the above-mentioned physiological saline solution containing 0.1% of albumin. This dilution contained 0.2 or 1 I.U. of swine calcitonin per 0.2 ml.

Structure (SMILES): CC[C@H](C)[C@H](NC(=O)[C@H](C)NC(=O)[C@@H](NC(=O)[C@H](CCC(N)=O)NC(=O)[C@@H]1CCCN1C(=O)[C@H](Cc1ccccc1)NC(=O)[C@@H](NC(=O)[C@H](Cc1c[nH]cn1)NC(=O)[C@H](Cc1ccccc1)NC(=O)[C@H](CCCCN)NC(=O)[C@H](CC(N)=O)NC(=O)[C@H](Cc1ccccc1)NC(=O)[C@H](CC(=O)O)NC(=O)[C@H](CCC(N)=O)NC(=O)[C@@H](NC(=O)[C@H](Cc1ccc(O)cc1)NC(=O)[C@@H](NC(=O)CNC(=O)[C@H](CC(C)C)NC(=O)[C@@H](NC(=O)[C@@H]1CSSC[C@H](N)C(=O)NCC(=O)N[C@@H](CC(N)=O)C(=O)N[C@@H](CC(C)C)C(=O)N[C@@H](CO)C(=O)N[C@@H]([C@@H](C)O)C(=O)N1)C(C)C)[C@@H](C)O)[C@@H](C)O)[C@@H](C)O)[C@@H](C)O)C(=O)NCC(=O)N[C@H](C(=O)NCC(=O)N[C@@H](C)C(=O)N1CCC[C@H]1C(=O)NCC(=O)N[C@@H](CCCCN)C(=O)N[C@@H](CCCCN)C(=O)N[C@@H](CCCNC(=N)N)C(=O)O)C(C)C [HPCT] (H-CGNLSTCVLGTYTQDFNKFHTFPQTAIGVGAPGKKR-OH; disulfide 1-7)
- activity equivalent in swine calcitonin (4.5 μg of HPCT, rat, subcutaneous, serum calcium time course): 0.2 I.U.
- calcitonin activity (calcium level in the rat blood): markedly reducing the calcium level in the rat blood
- physiological activity compared with swine calcitonin (rat serum calcium, Table 2, not compared in an equal amount): stronger physiological activity as compared with swine calcitonin
- serum calcium level (rat, 4.5 μg subcutaneously, 1 and 2 hours after the administration): dropped with statistical significance
- Change in serum Ca level (rat, 1 hour after administration): -0.85 mg/dL
- Change in serum Ca level (rat, 2 hours): -0.64 mg/dL
- Change in serum Ca level (rat, 3 hours): -0.47 mg/dL
- Change in serum Ca level (rat, 4 hours): -0.63 mg/dL
